Test results reported in patent US5583142A, “Analgesic and nootropic drugs” (priority 1992, dated 1996).
“And” between values parts separate entries of the source, which are not always exact repeats. Identical values can stand only once. Like-named read-outs stand apart in the source and are kept apart here.

How the values were obtained:
[1] = paw-pressure test in rats with a lesion in the nucleus basalis magnocellularis (NBM); type: in vivo, rat; conditions: 4 mg/kg i.p.
Description: 3. […] In fact, as known, the magnocellular basal nucleus destruction causes the degeneration of most central cholinergic system.

[2] = mouse acetic acid writhing test; type: in vivo
Method: (§1) The analgesic action was detected in mouse, rat, guinea pig and dog. The mouse was subjected to hot plate and writhing tests; the rat to tail-flick and paw-pressure tests; the guinea pig to paw-pressure test only; the dog to the test described by Vainio et al. [J. Vet. Pharmacol. Ther., 12, 225-231 (1989)] using an electric stimulation. Consequently, the claimed compounds were tested with pain being induced by stimuli of different nature: thermal (hot plate and tail flick), chemical (writhing by acetic acid), mechanical (paw pressure) and electrical (cutaneous stimulation).
The claimed molecules, chosen as examples, were also assayed in mice by the writhing test (Table 4). The test is meant to evaluate the products capability to prevent mice writhes ensuing abdominal pains caused by i.p. injection of a 0.6% aqueous solution of acetic acid.
Acetic acid solution = 0.6% v/v.

[3] = rat tail-flick test; type: in vivo; conditions: for tail-flick: 15 mg/kg i.p.
Method: as §1
(§2) As already mentioned, the claimed products were assayed also in rat by the paw-pressure and tail-flick tests.
(§3) Both tests were carried out with the max. doses not impairing the rats normal behaviour. […] The painful stimulus utilized in the paw-pressure test involved the animal consciousness to a much greater extent than the stimulus used in the tail-flick test, in fact, the type and anatomic localization of the latter mainly involved a spinal response.
(§4) Both tests on rats were carried out with the max. doses not altering the behaviour of the treated animals.
The test was performed using th

[4] = type: in vivo, mouse; conditions: for ANALGESIC ACTIVITY (degree of analgesia, latency on hot plate): max. dose not affecting mice behaviour
Method: as §1
Potency, efficacy and toxicity of SM21, PG9 and SM32 in comparison with
four principal reference analgesic drugs tested in mouse. As analgesic

[5] = rat paw-pressure test; type: in vivo; conditions: for paw-pressure: 15 mg/kg i.p.
Method: as §1, §2, §3, §4

[6] = mouse rota-rod test (16 r.p.m.)
Description: All products tested to detect their antinociceptive activity had been previously tested by the rota-rod test to determine their maximum utilizable dose in analgesic tests. In fact, by this test it is possible to determine the highest dose of drug not impairing the normal performance of animals in a test that simultaneously evaluates motor coordination, equilibrium, resistance to fatigue, and muscle strength. This test is meant to evaluate the capability of mice to stay balanced on a rotating rod [cf. Vaught et al., Neuropharmacology, 24 (3) 211-216 (1985)].
The calculated doses were those used in the two analgesic tests on mice.

**Q.** For `NCC(CC(=O)O)c1ccc(Cl)cc1` (centres unmarked) [Baclofen, reference compound], which paw-pressure ([1]; lesioned (NBM) rats, 15 min after treatment) is on record?
**A.** 117.4 ± 6.4 g

**Q.** What about the paw-pressure ([1]; lesioned (NBM) rats, 30 min after treatment) of the same molecule?
**A.** 137.9 ± 4.8 g

**Q.** What about the paw-pressure ([1]; lesioned (NBM) rats, 45 min after treatment) of the same molecule?
**A.** 131.8 ± 5.7 g

**Q.** And the paw-pressure ([1]; sham rats, 15 min after treatment)?
**A.** 108.7 ± 6.6 g

**Q.** What about the paw-pressure ([1]; sham rats, 30 min after treatment) of the same molecule?
**A.** 132.8 ± 5.9 g

**Q.** And the paw-pressure ([1]; sham rats, 45 min after treatment)?
**A.** 124.7 ± 5.8 g

**Q.** What does the source list for `CN(C)CCOC(c1ccccc1)c1ccccc1` [Diphenhydramine, reference compound]?
**A.** efficacy in writhing test, in words ([2]; mouse): far less efficacious; number of writhes ([2]; mouse, 20 mg/kg s.c.): 24.6 ± 2.4; Efficacy as analgesic (Morphine = 100) ([2]; mouse, writhing, 20 mg/kg s.c.): 38; percent inhibition ([2]; mouse, writhing, 20 mg/kg s.c.): 28.1%; ED50 ([2]; sc, mouse writhing): 7.8 mg/kg and 30.5 µmol/kg; activity in tail-flick test, in words [3]: inactive; tail-flick ([3]; 15 min after treatment): 2.9 ± 0.2 s; tail-flick ([3]; 30 min after treatment): 2.5 ± 0.2 s; tail-flick ([3]; 45 min after treatment): 2.5 ± 0.1 s; ED50 compared with claimed compounds ([4]; mouse hot plate): equivalent to those of the claimed compounds; analgesic efficacy / degree of analgesia compared with claimed compounds ([4]; mouse hot plate): much lower degree of analgesia; Efficacy as analgesic (Morphine = 100), M.E. (Maximum Analgesic Effect) ([4]; mouse, in vivo): 43; hot-plate latency ([4]; mouse, 20 mg/kg i.p., 15 min after treatment): 21.6 ± 2.5 s; hot-plate latency ([4]; mouse, 20 mg/kg i.p., 30 min after treatment): 17.7 ± 1.6 s; hot-plate latency ([4]; mouse, 20 mg/kg i.p., 45 min after treatment): 17.1 ± 1.8 s; hot-plate latency ([4]; mouse, 20 mg/kg s.c., 15 min after treatment): 23.6 ± 2.6 s; hot-plate latency ([4]; mouse, 20 mg/kg s.c., 30 min after treatment): 18.0 ± 1.4 s; hot-plate latency ([4]; mouse, 20 mg/kg s.c., 45 min after treatment): 18.7 ± 2.1 s; activity in paw-pressure test, in words [5]: inactive; paw-pressure ([5]; 15 min after treatment): 72.6 ± 6.8 g; paw-pressure ([5]; 30 min after treatment): 70.0 ± 5.4 g; paw-pressure ([5]; 45 min after treatment): 68.0 ± 6.6 g; rota-rod performance (number of falls in 30 s) ([6]; 25 mg/kg s.c., 15 min after treatment): 2.0 ± 0.5 falls in 30 s; rota-rod performance (number of falls in 30 s) ([6]; 25 mg/kg s.c., 30 min after treatment): 1.0 ± 0.3 falls in 30 s; rota-rod performance (number of falls in 30 s) ([6]; 25 mg/kg s.c., 45 min after treatment): 1.4 ± 0.4 falls in 30 s; rota-rod performance (number of falls in 30 s) ([6]; 30 mg/kg s.c., 15 min after treatment): 2.1 ± 0.4 falls in 30 s; rota-rod performance (number of falls in 30 s) ([6]; 30 mg/kg s.c., 30 min after treatment): 1.5 ± 0.3 falls in 30 s; rota-rod performance (number of falls in 30 s) ([6]; 30 mg/kg s.c., 45 min after treatment): 1.5 ± 0.4 falls in 30 s; rota-rod performance (number of falls in 30 s) ([6]; 40 mg/kg s.c., 15 min after treatment): 4.3 ± 0.4 falls in 30 s; rota-rod performance (number of falls in 30 s) ([6]; 40 mg/kg s.c., 30 min after treatment): 3.1 ± 0.4 falls in 30 s; rota-rod performance (number of falls in 30 s) ([6]; 40 mg/kg s.c., 45 min after treatment): 2.3 ± 0.4 falls in 30 s

**Q.** For `CC(Oc1ccc(F)cc1)C(=O)O[C@H]1C[C@H]2CC[C@@H](C1)N2C` (some centres unmarked) [NR100], which “ANALGESIC ACTIVITY (degree of analgesia, latency on hot plate)” value (“ANALGESIC ACTIVITY” below) [4] is on record?
**A.** ++++ (Latency above 35" ++++-)

**Q.** With `CC(C(=O)OC1CC2CCC(C1)N2C)c1ccc([N+](=O)[O-])cc1` (centres unmarked) [PG4] as the molecule, how does the “ANALGESIC ACTIVITY” value [4] read?
**A.** + (Latency under or equal to 25" +-)

**Q.** For `CC(C(=O)OC1CC2CCC(C1)N2C)c1ccc(N)cc1` (centres unmarked) [PG5], which “ANALGESIC ACTIVITY” value [4] is on record?
**A.** + (Latency under or equal to 25" +-)

**Q.** For `CC(C(=O)OC1CC2CCC(C1)N2C)c1cccc(Cl)c1` (centres unmarked) [PG13], which “ANALGESIC ACTIVITY” value [4] is on record?
**A.** +++ (Latency under or equal to 35" +++-)

**Q.** With `CC(C(=O)OC1CC2CCC(C1)N2C)c1ccccc1Cl` (centres unmarked) [PG14] as the molecule, how does the “ANALGESIC ACTIVITY” value [4] read?
**A.** +++ (Latency under or equal to 35" +++-)

**Q.** For `CC(C)Cc1ccc(C(C)C(=O)OC2CC3CCC(C2)N3C)cc1` (centres unmarked) [PG16], which “ANALGESIC ACTIVITY” value [4] is on record?
**A.** + (Latency under or equal to 25" +-)

**Q.** Which “ANALGESIC ACTIVITY” value [4] does the source give for `COc1ccc(C(C)C(=O)OC2CC3CCC(C2)N3C)cc1` (centres unmarked) [PG18] here?
**A.** + (Latency under or equal to 25" +-)

**Q.** For `CC(C(=O)OC1CC2CCC(C1)N2C)c1ccc(F)cc1` (centres unmarked) [PG21], which “ANALGESIC ACTIVITY” value [4] is on record?
**A.** +++ (Latency under or equal to 35" +++-)

**Q.** For `CC(C(=O)OC1CC2CCC(C1)N2C)c1ccccc1Br` (centres unmarked) [PG23], which “ANALGESIC ACTIVITY” value [4] is on record?
**A.** ++ (Latency under or equal to 30" ++-)

**Q.** For `CCC(C(=O)OC1CC2CCC(C1)N2C)c1ccc(Br)cc1` (centres unmarked) [PG24], which “ANALGESIC ACTIVITY” value [4] is on record?
**A.** +++ (Latency under or equal to 35" +++-)

**Q.** Which “ANALGESIC ACTIVITY” value [4] does the source give for `CC(C(=O)O[C@H]1C[C@H]2CC[C@@H](C1)N2C)c1ccc(Cl)cc1` (stereo partly drawn) [PG-8, 3α-Tropanyl 2-(p-chlorophenyl)-propionate] here?
**A.** +++ (Latency under or equal to 35" +++-)

**Q.** With `CC(Oc1cccc(Cl)c1)C(=O)OC1CC2CCC(C1)N2C` (centres unmarked) [SM12] as the molecule, how does the “ANALGESIC ACTIVITY” value [4] read?
**A.** ++ (Latency under or equal to 30" ++-)

**Q.** Which “ANALGESIC ACTIVITY” value [4] does the source give for `CC(Oc1ccc(Br)cc1)C(=O)O[C@H]1C[C@H]2CC[C@@H](C1)N2C` (some centres unmarked) [SM15] here?
**A.** ++ (Latency under or equal to 30" ++-)

**Q.** With `CC(Sc1ccc(Br)cc1)C(=O)OC1CC2CCC(C1)N2C` (centres unmarked) [SM17] as the molecule, how does the “ANALGESIC ACTIVITY” value [4] read?
**A.** ++++ (Latency above 35" ++++-)

**Q.** For `CC(Oc1ccc(C(F)(F)F)cc1)C(=O)O[C@H]1C[C@H]2CC[C@@H](C1)N2C` (some centres unmarked) [SM19], which “ANALGESIC ACTIVITY” value [4] is on record?
**A.** + (Latency under or equal to 25" +-)

**Q.** With `CC(Sc1ccc(F)cc1)C(=O)OC1CC2CCC(C1)N2C` (centres unmarked) [SM23] as the molecule, how does the “ANALGESIC ACTIVITY” value [4] read?
**A.** ++ (Latency under or equal to 30" ++-)

**Q.** Which “ANALGESIC ACTIVITY” value [4] does the source give for `CN1[C@@H]2CC[C@H]1C[C@@H](OC(=O)C(C)(C)Oc1ccc(Cl)cc1)C2` [SM-25, 3α-Tropanyl 2-(p-chlorophenoxy)-isobutyrate] here?
**A.** ++ (Latency under or equal to 30" ++-)

**Q.** For `CCC(Sc1ccc(Cl)cc1)C(=O)O[C@H]1C[C@H]2CC[C@@H](C1)N2C` (stereo partly drawn) [SM-35, 3α-Tropanyl 2-(p-chlorophenylthio)-butyrate], which “ANALGESIC ACTIVITY” value [4] is on record?
**A.** +++ (Latency under or equal to 35" +++-)

**Q.** With `CC(Oc1ccc(Cl)c(Cl)c1)C(=O)OC1CC2CCC(C1)N2C` (centres unmarked) [SS10] as the molecule, how does the “ANALGESIC ACTIVITY” value [4] read?
**A.** + (Latency under or equal to 25" +-)

**Q.** For `CC(Sc1ccccc1)C(=O)OC1CC2CCC(C1)N2C` (centres unmarked) [SS12], which “ANALGESIC ACTIVITY” value [4] is on record?
**A.** ++ (Latency under or equal to 30" ++-)

**Q.** With `Cc1ccc(SC(C)C(=O)OC2CC3CCC(C2)N3C)cc1` (centres unmarked) [SS21] as the molecule, how does the “ANALGESIC ACTIVITY” value [4] read?
**A.** + (Latency under or equal to 25" +-)

**Q.** For `CC(Oc1ccc(C#N)cc1)C(=O)O[C@H]1C[C@H]2CC[C@@H](C1)N2C` (some centres unmarked) [SS26], which “ANALGESIC ACTIVITY” value [4] is on record?
**A.** ++ (Latency under or equal to 30" ++-)

**Q.** For `CC(Nc1ccccc1)C(=O)OC1CC2CCC(C1)N2C` (centres unmarked) [SS29], which “ANALGESIC ACTIVITY” value [4] is on record?
**A.** +++ (Latency under or equal to 35" +++-)

**Q.** Which “ANALGESIC ACTIVITY” value [4] does the source give for `CC(Oc1ccc(Cl)cc1)C(=O)N[C@H]1C[C@H]2CC[C@@H](C1)N2C` (stereo partly drawn) [SS-16, N-(3α-tropanyl)-2-(p-chlorophenoxy)-propionamide] here?
**A.** + (Latency under or equal to 25" +-)

**Q.** Which “ANALGESIC ACTIVITY” value [4] does the source give for `CC(Sc1ccc(Cl)cc1)C(=O)O[C@H]1C[C@H]2CC[C@@H](C1)N2C` (stereo partly drawn) [SS-20, 3α-Tropanyl 2-(p-chlorophenylthio)propionate] here?
**A.** +++ (Latency under or equal to 35" +++-)
